Results on two compounds are retold here after patent US9241923B2, “Methods for promoting neuronal development and/or health” (Mead Johnson Nutrition Company, priority 2013, dated 2016).

Molecules are shown by their SMILES.

For this data set, the system named is human adipose derived stem cells (hADSCs). Put plainly: neurogenesis / neuronal differentiation of hADSCs judged by neuronal morphology under phase contrast microscopy. It counts as cell-based. Here is the method: hADSCs were purchased from Invitrogen, also known as Life Technologies, of Carlsbad, Calif., U.S.A., and were cultured as near confluent monolayers in 100 mm culture plates within a maintenance media consisting of Complete MesenPro RS medium with growth supplement and L-glutamine obtained from Invitrogen®. The process of culturing, passage, and seeding the hADSCs is described below.
The subculture of hADSCs was performed when cell culture reached confluence. To passage hADSCs, the following procedure is used: i) aspirate the Complete MesenPRO RS medium from the cells; ii) rinse the surface area of the cell layer with Dulbecco's phosphate buffered saline (DBPS) buffer by adding the DPBS to the side of the vessel opposite the attached cell layer and rocking the vessel back and forth several times; iii) remove the DPBS by aspiration and discard; iv) detach the cells by adding a sufficient volume of pre-warmed trypsin-EDTA solution without phenol red to cover the cell layer; v) incubate at 37° C. for approximately 7 minutes; vi) observe the cells under a microscope to determine if additional incubation is needed; vii) add 3 mL of the maintenance media to the plate, mix the cell suspension, add the suspension to a 15 mL centrifuge tube and centrifuge at 210 g for 5 minutes; viii) determine the total number of cells and percent viability using a hemacytometer; ix) add Complete MesenPRO RS medium to each vessel so that the final culture volume is 0.2 mL-0.5 mL per cm^2; x) seed the cells by adding the appropriate volume of cells to each vessel and incubate at 37° C., 5% CO2 and 90% humidity; and xi) three or four days after seeding, completely remove the medium and replace with an equal volume of Complete MesenPRO RS medium.
Before seeding the passaged hADSCs on fresh culture plates, the surfaces of the culture ware are washed with sterile DPBS solution three times, followed by multiple rinses with sterile water. The first layer of coating is poly-L-ornithine. The coating is prepared by adding about 15 to about 20 µg/mL of poly-L-ornithine and incubating at 37° C. for one hour. The plate is washed three times with DPBS, 15 minutes per wash. The second layer of coating is bovine plasma fibronectin. The fibronectin is diluted in DPBS from stock to 1:1000 and 500 μL is added to each well. The plate is left at room temperature for one hour. One final wash with 500 μL per well of DPBS is performed and the plate is used immediately.
The cells were then subjected to removal and reseeded at a density of 2×10^4 cells/ml (1×10^4 cells/well) onto 24-well culture plates that contained a poly-L-ornithine and bovine plasma fibronectin coating.
Three days after seeding and priming; the culture medium was changed into neuronal differentiation medium. […]

As for `CC/C=C\C/C=C\C/C=C\C/C=C\C/C=C\C/C=C\CCC(=O)O` [DHA, docosahexanoic acid, reference compound], the “neuronal morphology of hADSCs” value (DHA at 20 μM (positive control), vs negative control, FIG. 2B) is “enhanced neuronal morphology of hADSCs”.

For the compound `O=C(O)CCCCC1CCSS1` (stereo not drawn) [ALA, Alpha-lipoic acid], the “neurite outgrowth compared with DHA” value (ALA 5 μg/ml vs DHA 20 μM, FIG. 2C vs FIG. 2B) is given as “robust ability to promote neurogenesis in terms of neurite outgrowth”. Further, for the setting “ALA at 5 μg/ml, phase contrast microscopy at 3 hours and 24 hours, vs negative control (no treatment), FIG. 2C”, the “neurogenesis (neuronal morphology displayed by the hADSCs)” value was “strong effect to enhance neurogenesis”. The “cell death (cellular toxicity) as compared to DHA” value (wells treated with ALA 5 μg/ml vs DHA 20 μM, hADSCs) was “less cell death overall”.
